Measured values published in patent EP2706123A1, “In vitro method for determining genotoxic and non-genotoxic carcinogenicity of a compound” (Rijksinstituut Voor Volksgezondheid En Milieu, priority 2012, dated 2014).
Where “and” joins values, the source holds several entries; their conditions need not be identical. Identical values can stand only once.

Legend:
Zbtb16 = experiment: Expression level of marker gene Zbtb16 in liver of mice exposed for 7 days (microarray); details: mouse liver, 7 days exposure; for Average Fold Changes of the expression level of marker gene Zbtb16: average of 3 - 4 independent repeat experiments, negative value = underexpression (negative inverse of Ratio), dose and route per compound in Table 8; for Fold Change of expression of Zbtb16 in individual animals: one animal per table line (suffix of Exposure label = animal number), negative value = underexpression
Nup62 = experiment: Expression level of marker gene Nup62 in liver of mice exposed for 7 days (microarray); details: mouse liver, 7 days exposure; for Average Fold Changes of the expression level of marker gene Nup62: average of 3 - 4 independent repeat experiments, negative value = underexpression (negative inverse of Ratio), dose and route per compound in Table 8; for Fold Change of expression of Nup62 in individual animals: one animal per table line (suffix of Exposure label = animal number), negative value = underexpression
Cyp17a1 = experiment: Expression level of marker gene Cyp17a1 in liver of mice exposed for 7 days (microarray); details: mouse liver, 7 days exposure; for Average Fold Changes of the expression level of marker gene Cyp17a1: average of 3 - 4 independent repeat experiments, negative value = underexpression (negative inverse of Ratio), dose and route per compound in Table 8; for Fold Change of expression of Cyp17a1 in individual animals: one animal per table line (suffix of Exposure label = animal number), negative value = underexpression
Anks4b = experiment: Expression level of marker gene Anks4b in liver of mice exposed for 7 days (microarray); details: mouse liver, 7 days exposure; for Average Fold Changes of the expression level of marker gene Anks4b: average of 3 - 4 independent repeat experiments, negative value = underexpression (negative inverse of Ratio), dose and route per compound in Table 8; for Fold Change of expression of Anks4b in individual animals: one animal per table line (suffix of Exposure label = animal number), negative value = underexpression
9030619P08Rik = experiment: Expression level of marker gene 9030619P08Rik in liver of mice exposed for 7 days (microarray); details: mouse liver, 7 days exposure; for Average Fold Changes of the expression level of marker gene 9030619P08Rik: average of 3 - 4 independent repeat experiments, negative value = underexpression (negative inverse of Ratio), dose and route per compound in Table 8; for Fold Change of expression of 9030619P08Rik in individual animals: one animal per table line (suffix of Exposure label = animal number), negative value = underexpression
LOC75771 = experiment: Expression level of marker gene LOC75771 in liver of mice exposed for 7 days (microarray); details: mouse liver, 7 days exposure; for Average Fold Changes of the expression level of marker gene LOC75771: average of 3 - 4 independent repeat experiments, negative value = underexpression (negative inverse of Ratio), dose and route per compound in Table 8; for Fold Change of expression of LOC75771 in individual animals: one animal per table line (suffix of Exposure label = animal number), negative value = underexpression

Compound | Average Fold Changes of the expression level of marker gene Zbtb16 (Zbtb16) | Fold Change of expression of Zbtb16 in individual animals (Zbtb16) | Average Fold Changes of the expression level of marker gene Nup62 (Nup62) | Fold Change of expression of Nup62 in individual animals (Nup62) | Average Fold Changes of the expression level of marker gene Cyp17a1 (Cyp17a1) | Fold Change of expression of Cyp17a1 in individual animals (Cyp17a1) | Average Fold Changes of the expression level of marker gene Anks4b (Anks4b) | Fold Change of expression of Anks4b in individual animals (Anks4b) | Average Fold Changes of the expression level of marker gene 9030619P08Rik (9030619P08Rik) | Fold Change of expression of 9030619P08Rik in individual animals (9030619P08Rik) | Average Fold Changes of the expression level of marker gene LOC75771 (LOC75771) | Fold Change of expression of LOC75771 in individual animals (LOC75771)
CC(C)(c1ccc(O)cc1)c1ccc(O)cc1 [NC_BPA, Bisphenol A] | -1,23 | 1,114306 and -1,6599 and 1,05274 and -1,63459 | -1,04 | -1,01361 and -1,00973 and 1,14385 and -1,3266 | -2,45 | -4,75677 and -1,01075 and -3,4994 and -2,12839 | -1,02 | -1,16229 and 1,285365 and -1,14224 and -1,06695 | 1,29 | -1,23514 and 2,605592 and 1,167664 and 1,121763 | 1,14 | 1,027932 and 1,306211 and -1,1049 and 1,370273
CC(C)CCCCCCCOC(=O)c1ccccc1C(=O)OCCCCCCCC(C)C [NC_DIDP, Diisodecyl phthalate] | -1,37 | 1,045284 and -1,02838 and -1,15546 and -3,11558 | -1,03 | 1,082226 and -1,02869 and 1,206993 and -1,44589 | -1,22 | -1,67941 and 2,746697 and -2,01664 and -1,81914 | 1,17 | 1,254408 and -1,44863 and 1,229508 and 1,74936 | 1,19 | 1,367458 and -2,48269 and 1,316609 and 2,807593 | 1,26 | 1,468884 and 1,270453 and 1,155297 and 1,177232
CCCCC(CC)COC(=O)c1ccccc1C(=O)OCC(CC)CCCC (stereo not drawn) [NGTXC_DEHP, Di(2-ethylhexyl)phthalate] | -1,19 | -1,41583 and 1,601817 and -2,52071 and 1,114567 | 1,03 | 1,166832 and 1,023361 and -1,1264 and 1,077398 | 2,49 | 6,253363 and 1,806164 and 1,292719 and 2,626167 | -1,13 | -1,08 and -1,18919 and 1,270926 and -1,59617 | 3,11 | 1,421539 and 3,741746 and 4,049144 and 4,353386 | 1,12 | 1,152676 and 1,339443 and 1,013056 and 1,023425
CC/C(=C(/CC)c1ccc(O)cc1)c1ccc(O)cc1 [NGTXC_DES, Diethylstillbestrol] | -1,15 | -1,72326 and 1,430939 and 1,400903 and -2,03597 | -1,07 | -1,56356 and 1,18178 and -1,04186 and 1,041463 | 10,74 | 9,417864 and 18,44632 and 6,256012 and 12,22566 | -1,02 | 1,020605 and 1,193296 and -1,09903 and -1,20697 | 8,00 | 3,399244 and 17,02687 and 10,00524 and 7,062258 | -1,06 | -1,13239 and -1,07708 and 1,027336 and -1,04436
CCC1(c2ccccc2)C(=O)NC(=O)NC1=O [NGTXC_PBB, Phenobarbital] | -1,59 | -2,34418 and -1,15391 and -1,99396 and -1,17093 | 1,00 | -1,18737 and -1,21348 and 1,070337 and 1,356669 | 2,24 | 1,987088 and 1,966993 and 2,933095 and 2,191937 | 1,47 | 1,857325 and 1,468237 and 1,631778 and 1,048775 | 15,09 | 10,68519 and 17,28227 and 19,31769 and 14,53071 | 1,17 | 1,084573 and 1,085274 and 1,34375 and 1,18945
